Paper PMC5357904, “Vertebrate Cryptochromes are Vestigial Flavoproteins” (Scientific Reports, 2017)
Changes are numbered by the printed parent chain.

Assays:
Type in all cases: binding
DmCRY [1] = molecular target: T1, DmCRY (Drosophila melanogaster, UniProt O77059, R237E/R298E); assay: UV-visible absorption of purified protein ([…] nm), FAD occupancy; conditions: co-purified FAD
T1 construct: gene cry

DmCRY [2] = molecular target: T2, DmCRY (Drosophila melanogaster, UniProt O77059, R298E/Q311E); assay: as above; conditions: co-purified FAD
T2 construct: gene cry

SbCRY1a = molecular target: T3, SbCRY1a (Sylvia borin, UniProt Q6ZZY0); assay: UV-visible absorption titration of apo-protein into constant FAD, global fit
T3 construct: gene CRY1; full length 1-620, 36-aa N-terminal 6xHis extension (pRSET-A), E. coli SoluBL21, apo-protein
T3 sequence (Q6ZZY0 1-620): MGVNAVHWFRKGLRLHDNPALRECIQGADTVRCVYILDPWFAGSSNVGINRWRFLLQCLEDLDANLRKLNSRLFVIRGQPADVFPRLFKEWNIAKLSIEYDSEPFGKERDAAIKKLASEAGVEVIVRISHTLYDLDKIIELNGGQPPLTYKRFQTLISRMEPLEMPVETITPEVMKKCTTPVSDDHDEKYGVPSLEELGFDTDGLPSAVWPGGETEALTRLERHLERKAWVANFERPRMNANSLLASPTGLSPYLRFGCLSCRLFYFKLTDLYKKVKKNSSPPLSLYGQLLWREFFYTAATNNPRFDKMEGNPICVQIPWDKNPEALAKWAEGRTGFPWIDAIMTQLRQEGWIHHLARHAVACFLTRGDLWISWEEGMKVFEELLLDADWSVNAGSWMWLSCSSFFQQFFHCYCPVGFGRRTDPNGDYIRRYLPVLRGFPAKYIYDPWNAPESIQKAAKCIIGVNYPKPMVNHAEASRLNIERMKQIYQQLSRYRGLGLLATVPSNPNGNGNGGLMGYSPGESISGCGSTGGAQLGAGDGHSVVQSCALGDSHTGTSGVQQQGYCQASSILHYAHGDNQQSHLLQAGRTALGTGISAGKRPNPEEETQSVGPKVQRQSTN

DmCRY [3] = molecular target: T4, DmCRY (Drosophila melanogaster, UniProt O77059, Q311E); assay: UV-visible absorption of purified protein ([…] nm), FAD occupancy; conditions: co-purified FAD
T4 construct: gene cry

HsCRY2 [4] = molecular target: T5, HsCRY2 (Homo sapiens, UniProt Q49AN0); assay: UV-visible absorption titration of apo-protein into constant FAD, global fit
T5 construct: gene CRY2; full length 1-593, 39-aa N-terminal 6xHis extension (pRSET-A), E. coli SoluBL21, apo-protein
T5 sequence (Q49AN0 1-593): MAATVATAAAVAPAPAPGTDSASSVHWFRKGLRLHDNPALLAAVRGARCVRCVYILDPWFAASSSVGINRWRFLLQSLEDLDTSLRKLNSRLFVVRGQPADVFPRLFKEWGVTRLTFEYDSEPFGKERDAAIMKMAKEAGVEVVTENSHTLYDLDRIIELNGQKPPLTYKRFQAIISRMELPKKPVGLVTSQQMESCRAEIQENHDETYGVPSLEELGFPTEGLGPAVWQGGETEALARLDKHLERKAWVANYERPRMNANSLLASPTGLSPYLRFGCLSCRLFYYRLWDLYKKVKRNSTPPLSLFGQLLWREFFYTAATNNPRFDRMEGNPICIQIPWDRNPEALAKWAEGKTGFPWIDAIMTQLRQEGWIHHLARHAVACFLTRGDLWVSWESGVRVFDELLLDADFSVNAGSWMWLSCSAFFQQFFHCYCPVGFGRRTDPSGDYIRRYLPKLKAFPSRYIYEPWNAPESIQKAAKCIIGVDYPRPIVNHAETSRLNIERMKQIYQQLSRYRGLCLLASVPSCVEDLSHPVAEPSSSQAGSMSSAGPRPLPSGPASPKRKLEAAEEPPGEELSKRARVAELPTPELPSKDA

DmCRY [5] = molecular target: T6, DmCRY (Drosophila melanogaster, UniProt O77059, R237E); assay: UV-visible absorption of purified protein ([…] nm), FAD occupancy; conditions: co-purified FAD
T6 construct: gene cry

HsCRY2 [6] = molecular target: T7, HsCRY2 (Homo sapiens, UniProt Q49AN0, H243R/S415N); assay: UV-visible absorption after incubation in excess FAD and spin filtration; conditions: occupancy after incubation in excess FAD and removal of free FAD
T7 construct: gene CRY2; full length 1-593, 39-aa N-terminal 6xHis extension (pRSET-A), E. coli SoluBL21, apo-protein
T7 sequence (Q49AN0 1-593 H243R/S415N): T5 sequence (Q49AN0 1-593) with H243R, S415N

HsCRY1 = molecular target: T8, HsCRY1 (Homo sapiens, UniProt Q16526); assay: UV-visible absorption titration of apo-protein into constant FAD, global fit
T8 construct: gene CRY1; full length 1-586, 39-aa N-terminal 6xHis extension (pRSET-A), E. coli SoluBL21, apo-protein
T8 sequence (Q16526 1-586): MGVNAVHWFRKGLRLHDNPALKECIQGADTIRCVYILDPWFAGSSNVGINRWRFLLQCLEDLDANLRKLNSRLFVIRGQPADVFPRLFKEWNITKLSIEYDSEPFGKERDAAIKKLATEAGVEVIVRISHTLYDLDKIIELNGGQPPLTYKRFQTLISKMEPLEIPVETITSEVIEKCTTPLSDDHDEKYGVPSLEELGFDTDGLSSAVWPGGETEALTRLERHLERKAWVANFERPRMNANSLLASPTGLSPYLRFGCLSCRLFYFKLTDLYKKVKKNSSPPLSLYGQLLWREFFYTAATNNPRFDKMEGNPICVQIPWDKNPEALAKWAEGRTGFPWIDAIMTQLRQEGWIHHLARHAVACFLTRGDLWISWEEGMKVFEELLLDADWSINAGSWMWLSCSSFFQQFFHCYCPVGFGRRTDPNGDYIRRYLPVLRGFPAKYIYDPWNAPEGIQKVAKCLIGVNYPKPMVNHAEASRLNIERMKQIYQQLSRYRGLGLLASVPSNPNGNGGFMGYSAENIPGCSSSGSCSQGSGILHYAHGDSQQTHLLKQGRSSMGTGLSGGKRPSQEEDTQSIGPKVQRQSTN

DmCRY [7] = molecular target: T9, DmCRY (Drosophila melanogaster, UniProt O77059, N419S); assay: UV-visible absorption of purified protein ([…] nm), FAD occupancy; conditions: co-purified FAD
T9 construct: gene cry

DmCRY [8] = molecular target: T10, DmCRY (Drosophila melanogaster, UniProt O77059, R298E); assay: as above; conditions: co-purified FAD
T10 construct: gene cry

DmCRY [9] = molecular target: T11, DmCRY (Drosophila melanogaster, UniProt O77059, R237H); assay: as above; conditions: co-purified FAD
T11 construct: gene cry

DmCRY [10] = molecular target: T12, DmCRY (Drosophila melanogaster, UniProt O77059); assay: UV-visible absorption and visible CD of purified protein; conditions: co-purified oxidized FAD; near-stoichiometric
T12 construct: gene cry
T12 sequence (O77059 1-539): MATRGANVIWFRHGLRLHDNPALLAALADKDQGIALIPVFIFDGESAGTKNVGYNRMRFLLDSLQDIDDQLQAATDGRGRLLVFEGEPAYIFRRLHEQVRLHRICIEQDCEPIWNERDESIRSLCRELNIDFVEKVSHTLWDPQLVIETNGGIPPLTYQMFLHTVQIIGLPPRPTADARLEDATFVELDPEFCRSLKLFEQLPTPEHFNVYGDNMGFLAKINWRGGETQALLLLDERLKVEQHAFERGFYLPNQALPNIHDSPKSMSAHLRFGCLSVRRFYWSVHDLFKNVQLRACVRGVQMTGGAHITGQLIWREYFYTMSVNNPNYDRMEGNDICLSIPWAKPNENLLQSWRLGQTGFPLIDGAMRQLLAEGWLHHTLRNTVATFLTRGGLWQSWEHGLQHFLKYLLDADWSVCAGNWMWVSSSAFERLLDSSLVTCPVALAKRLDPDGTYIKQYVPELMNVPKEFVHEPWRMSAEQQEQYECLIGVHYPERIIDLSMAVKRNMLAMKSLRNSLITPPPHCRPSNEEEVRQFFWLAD

T11 sequence (O77059 1-539 R237H): as the sequence (O77059 1-539) above, with R237H counted along it
T6 sequence (O77059 1-539 R237E): as the sequence (O77059 1-539) above, with R237E counted along it
T9 sequence (O77059 1-539 N419S): as the sequence (O77059 1-539) above, with N419S counted along it
T1 sequence (O77059 1-539 R237E/R298E): as the sequence (O77059 1-539) above, with R237E, R298E counted along it
T10 sequence (O77059 1-539 R298E): as the sequence (O77059 1-539) above, with R298E counted along it
T4 sequence (O77059 1-539 Q311E): as the sequence (O77059 1-539) above, with Q311E counted along it
T2 sequence (O77059 1-539 R298E/Q311E): as the sequence (O77059 1-539) above, with R298E, Q311E counted along it

Cc1cc2nc3c(=O)[nH]c(=O)nc-3n(C[C@H](O)[C@H](O)[C@H](O)COP(=O)(O)OP(=O)(O)OC[C@H]3O[C@@H](n4cnc5c(N)ncnc54)[C@H](O)[C@@H]3O)c2cc1C [FAD]
% reduction of FAD occupancy (DmCRY [1]): ~ 16% | % reduction of FAD occupancy (DmCRY [2]): ~ 58% | Kd (SbCRY1a): 97 µM | FAD occupancy (DmCRY [3]): single point mutations only had a minimal impact on FAD occupancy | Kd (HsCRY2 [4]): 68 µM | % reduction of FAD occupancy (DmCRY [5]): ~ 12% | % bound FAD (HsCRY2 [6]): ~ 30% | Kd (HsCRY1): 16 µM | FAD occupancy (DmCRY [7]): single point mutations only had a minimal impact on FAD occupancy | FAD occupancy (DmCRY [8]): single point mutations only had a minimal impact on FAD occupancy | FAD occupancy (DmCRY [9]): single point mutations only had a minimal impact on FAD occupancy | UV-visible absorption and visible CD of purified protein (DmCRY [10]): UV-visible absorption spectrum of DmCRY shows near-stoichiometric binding of oxidized FAD
